In patent US20160046616A1, “NRF2 SMALL MOLECULE INHIBITORS FOR CANCER THERAPY” (THE JOHNS HOPKINS UNIVERSITY, priority 2013, published 2016) one finds IC50 data, which are given here for 50 compounds.

Experiment [1] concerns A549 NRF2-ARE-Fluc stable cell line. Kind of experiment: A549 Nrf2 assay: NRF2-ARE firefly luciferase reporter gene assay. The experiment is classed as cell-based. The settings on record: Homo sapiens, read-out: Potency of inhibition, A549. In a few lines:
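A549 cells (Keap1 loss-of-function, constitutive NRF2) stably carrying ARE-driven firefly luciferase; compound treatment 18–24 h at 37 °C, 0.46% DMSO final.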
Background: A reporter such as luciferase makes a cellular process visible.

The test system of experiment [2] is H1437 NRF2-ARE-Fluc stable cell line. Kind of experiment: H1437 Nrf2 assay: NRF2-ARE firefly luciferase reporter gene assay. The conditions noted are these: read-out: Potency of inhibition, H1437. The experiment is classed as cell-based.
The mark [3] stands for this setting: Homo sapiens, NCI-H1437, H1437 NRF2-ARE-Fluc stable cell line.

Like-named read-outs stand apart in the source and are kept apart here.

Turning to `Cc1ccccc1C(=O)N1CCc2cc(-c3nc(NC(=O)Cc4cccc(OCCOCCOCCN)c4)sc3C)ccc21` [Compound 238, 2-(3-(2-(2-(2-aminoethoxy)ethoxy)ethoxy)phenyl)-N-(5-methyl-4-(1-(2-methylbenzoyl)indolin-5-yl)thiazol-2-yl)acetamide], the IC50 in experiment [1] and in experiment [2] (setting [3]) was 5 to 25 µM throughout.
Take `CNc1ccc(-c2cccc(NC(=O)Cc3ccccc3)n2)cc1` [Compound 64, N-(6-(4-(methylamino)phenyl)pyridin-2-yl)-2-phenylacetamide]: the IC50 in experiment [1] was 5 to 25 µM; in experiment [2] (setting [3]) it was above 25 µM.
For the compound `Cc1sc(NC(=O)Cc2ccc3c(c2)OCO3)nc1-c1ccc2c(c1)CCN2C(=O)c1c(Cl)cnn1C` [Compound 187], the IC50 in experiment [1] and in experiment [2] (setting [3]) was below 5 µM in each case.
On to `Cc1sc(NC(=O)Cc2ccc3c(c2)OCO3)nc1-c1ccc2c(c1)CCN2C(=O)c1cccn1C` [Compound 184], for which the IC50 in experiment [1] and in experiment [2] (setting [3]) was below 5 µM in each case.
For the compound `Cc1ccccc1S(=O)(=O)N1CCc2cc(-c3nc(NC(=O)Cc4cccc(C(F)(F)F)c4)sc3C)ccc21` [Compound 132], the IC50 in experiment [1] and in experiment [2] (setting [3]) was 5 to 25 µM in each case.
As for `COc1ccc(-c2cc(C)no2)cc1S(=O)(=O)N1CCN(c2ccc([N+](=O)[O-])cc2)CC1` [Compound 42], the IC50 in experiment [1] and in experiment [2] (setting [3]) was below 5 µM each time.
As to `O=C(Nc1ccc(CN2CCOCC2)cc1)c1ccc(CN2CCc3ccccc3C2)cc1` [compound 163], the IC50 in experiment [1] is below 5 µM; in experiment [2] (setting [3]), above 25 µM.
`CC(c1ccc(C(=O)Nc2ccc(S(=O)(=O)N3CCOCC3)cc2)cc1)N1CCc2ccccc2C1` (stereo not shown) [compound 226]: the IC50 in experiment [1] and in experiment [2] (setting [3]) was below 5 µM each time.
Turning to `CC(=O)N1CCc2cc(S(=O)(=O)NCCC3=CCCCC3)ccc21` [Compound 35], the IC50 in experiment [1] is below 5 µM; in experiment [2] (setting [3]) it was 5 to 25 µM.
With `O=C(Cc1ccccc1)Nc1cncc(Cl)n1` [Compound 105, N-(6-chloropyrazin-2-yl)-2-phenylacetamide], the IC50 in experiment [1] and in experiment [2] (setting [3]) was above 25 µM throughout.
Consider `Cc1occc1C(=O)N1CCc2cc(-c3nc(NC(=O)Cc4ccc5c(c4)OCO5)sc3C)ccc21` [Compound 159], for which the IC50 in experiment [1] and in experiment [2] (setting [3]) was below 5 µM each time.
Regarding `O=C(Nc1ncc(Cc2ccccc2F)s1)c1ccn(-c2ccccc2)n1` [Compound 215], the IC50 in experiment [1] and in experiment [2] (setting [3]) was below 5 µM in each case.
Take `CC1=C(C(=O)N2CCc3cc(-c4nc(NC(=O)Cc5ccc6c(c5)OCO6)sc4C)ccc32)OCCO1` [Compound 162]: the IC50 in experiment [1] and in experiment [2] (setting [3]) was below 5 µM throughout.
On to `CCOC(=O)N1CCN(CC(=O)Nc2nc(-c3ccc4c(c3)CCN4C(=O)c3ccccc3C)c(C)s2)CC1` [Compound 228], for which the IC50 in experiment [1] and in experiment [2] (setting [3]) was below 5 µM each time.
Take `Cc1ccccc1C(=O)n1ccc2cc(-c3nc(NC(=O)Cc4ccc5c(c4)OCO5)sc3C)ccc21` [Compound 30]: the IC50 in experiment [1] and in experiment [2] (setting [3]) was 5 to 25 µM in each case.
Take `O=C(Nc1ncc(Cc2ccc(C(F)(F)F)cc2)s1)c1cccc(-c2ccccc2)c1` [Compound 59]: the results for the IC50 in experiment [1] and in experiment [2] (setting [3]) were 5 to 25 µM and above 25 µM, respectively.
With `COc1cccc(Cc2cnc(NC(=O)c3ccn(-c4ccccc4)n3)s2)c1` [Compound 219], the results for the IC50 in experiment [1] and in experiment [2] (setting [3]) were below 5 µM and 5 to 25 µM, respectively.
As to `Nc1ccc(-c2cccc(NC(=O)Cc3ccccc3)n2)cc1` [Compound 80, N-(6-(4-aminophenyl)pyridin-2-yl)-2-phenylacetamide], the IC50 in experiment [1] and in experiment [2] (setting [3]) was above 25 µM each time.
Turning to `Cc1ccccc1S(=O)(=O)N1CCc2cc(-c3nc(NC(=O)Cc4ccc(C(F)(F)F)cc4)sc3C)ccc21` [Compound 134], the IC50 in experiment [1] is below 5 µM; in experiment [2] (setting [3]), above 25 µM.
On to `O=C(Nc1ncc(Cc2ccc(C(F)(F)F)cc2)s1)c1ccc(-c2cccnc2)o1` [Compound 27], for which the values for the IC50 in experiment [1] and in experiment [2] (setting [3]) were 5 to 25 µM and below 5 µM, respectively.
With `Cc1ccccc1C(=O)N(C)c1ccc(-c2cccc(NC(=O)Cc3ccccc3)n2)cc1` [Compound 68], the IC50 in experiment [1] and in experiment [2] (setting [3]) was 5 to 25 µM throughout.
For the compound `O=C(Nc1ncc(Cc2ccc(C(F)(F)F)cc2)s1)c1ccc(-c2ccccc2)s1` [Compound 83], the IC50 in experiment [1] and in experiment [2] (setting [3]) was above 25 µM each time.
As to `CC(=O)N1CCN(S(=O)(=O)c2ccc(NC(=O)c3ccc(CN4CCc5ccccc5C4)cc3)cc2)CC1` [Compound 198], the IC50 in experiment [1] and in experiment [2] (setting [3]) was below 5 µM each time.
For the compound `Cc1ccccc1C(=O)N1CCc2cc(-c3nc(NC(=O)CN4CCN(c5ccccc5)CC4)sc3C)ccc21` [Compound 229], the IC50 in experiment [1] and in experiment [2] (setting [3]) was below 5 µM each time.
Consider `CC1(C)CC2CC(C)(CN2S(=O)(=O)c2ccc(C(=O)Nc3ccc(Cl)cc3)cc2)C1` (stereo not shown) [compound 53], for which the IC50 was below 5 µM in experiment [1] and 5 to 25 µM in experiment [2] (setting [3]).
The like results for `Cc1ccccc1C(=O)N1CCc2cc(-c3nc(NC(=O)CCc4ccccc4)sc3C)ccc21` [Compound 210] were, in that order, below 5 µM and 5 to 25 µM.
In the case of `O=C(Nc1ncc(Cc2ccc(C(F)(F)F)cc2)s1)c1ccn(-c2ccccc2)n1` [Compound 110], the IC50 in experiment [1] was below 5 µM; in experiment [2] (setting [3]) it was 5 to 25 µM.
On to `Cc1sc(NC(=O)Cc2ccc3c(c2)OCO3)nc1-c1ccc2c(c1)CCN2C(=O)c1ccccc1F` [Compound 115], for which the IC50 in experiment [1] and in experiment [2] (setting [3]) was below 5 µM in each case.
In the case of `Cc1sc(NC(=O)Cc2ccc3c(c2)OCO3)nc1-c1ccc2c(c1)CCN2C(=O)c1ccccc1OC(F)(F)F` [Compound 114], the IC50 is below 5 µM in experiment [1] and above 25 µM in experiment [2] (setting [3]).
`Cc1ccccc1S(=O)(=O)N1CCc2cc(-c3nc(NC(=O)Cc4cccc(F)c4)sc3C)ccc21` [Compound 124]: the IC50 in experiment [1] and in experiment [2] (H1437 NRF2-ARE-Fluc stable cell line) was below 5 µM throughout.
For `Cc1cnc(NC(=O)c2ccc(-c3cccc([N+](=O)[O-])c3)o2)s1` [Compound 67], the IC50 in experiment [1] was 5 to 25 µM; in experiment [2] (setting [3]) it was above 25 µM.
Turning to `O=C(Nc1ccc(S(=O)(=O)N2CCCC2)cc1)c1ccc(CN2CCc3ccccc3C2)cc1` [compound 145], the values for the IC50 in experiment [1] and in experiment [2] (setting [3]) were below 5 µM and above 25 µM, respectively.
As for `Cc1cccc(CC(=O)Nc2nc(-c3ccc4c(c3)CCN4S(=O)(=O)c3ccccc3C)c(C)s2)c1` [Compound 131], the IC50 in experiment [1] and in experiment [2] (setting [3]) was 5 to 25 µM each time.
Turning to `CCC(=O)N1c2ccc(S(=O)(=O)N3CCN(c4ccc([N+](=O)[O-])cc4)CC3)cc2CC1C` (stereo not shown) [Compound 40], the IC50 in experiment [1] and in experiment [2] (setting [3]) was below 5 µM throughout.
Turning to `Cc1ccccc1C(=O)N1CCc2cc(-c3nc(NC(=O)CN4CCNCC4)sc3C)ccc21` [Compound 70, N-(5-methyl-4-(1-(2-methylbenzoyl)indolin-5-yl)thiazol-2-yl)-2-(piperazin-1-yl)acetamide], the IC50 in experiment [1] and in experiment [2] (setting [3]) was above 25 µM each time.
Regarding `Cc1ccccc1C(=O)N1CCc2cc(-c3nc(NC(=O)c4ccc5c(c4)OCO5)sc3C)ccc21` [Compound 13], the IC50 in experiment [1] is below 5 µM; in experiment [2] (setting [3]), 5 to 25 µM.
For `Cc1ccccc1C(=O)N1CCc2cc(-c3nc(NC(=O)C(C)(C)C)sc3C)ccc21` [Compound 209], the results for the IC50 in experiment [1] and in experiment [2] (setting [3]) were 5 to 25 µM and below 5 µM, respectively.
In the same order, the values of `O=C(Nc1ccc(S(=O)(=O)N2CCOCC2c2ccccc2)cc1)c1ccc(CN2CCc3ccccc3C2)cc1` (stereo not shown) [compound 165] are below 5 µM and 5 to 25 µM.
Turning to `O=C(Nc1cccc(S(=O)(=O)N2CCOCC2)c1)c1ccc(CN2CCc3ccccc3C2)cc1` [compound 119], the figures for the IC50 in experiment [1] and in experiment [2] (setting [3]) were 5 to 25 µM and above 25 µM, respectively.
In the same order, the values of `Cc1ccccc1S(=O)(=O)N1CCc2cc(-c3nc(NC(=O)Cc4ccccc4C(F)(F)F)sc3C)ccc21` [Compound 129] are below 5 µM and above 25 µM.
As to `Cc1ccccc1C(=O)N1CCc2cc(N3CCCC(NC(=O)Cc4ccccc4)C3)ccc21` (stereo not shown) [Compound 97], the IC50 in experiment [1] and in experiment [2] (setting [3]) was 5 to 25 µM throughout.
For `Cc1ccccc1C(=O)N1CCc2cc(-c3nc(NC(=O)Cc4ccc(OCCOCCOCCNC(=O)CCCC[C@@H]5SC[C@@H]6NC(=O)N[C@@H]65)cc4)sc3C)ccc21` [Compound 241], the results for the IC50 in experiment [1] and in experiment [2] (setting [3]) were above 25 µM and 5 to 25 µM, respectively.
Turning to `O=C(Nc1ccc(S(=O)(=O)N2CCOCC2)cc1)c1ccc(CN2Cc3ccccc3C2)cc1` [Compound 204], the IC50 in experiment [1] and in experiment [2] (setting [3]) was below 5 µM in each case.
For the compound `O=C(Nc1ccc(N2CCOCC2)cc1)c1ccc(CN2CCc3ccccc3C2)cc1` [compound 149], the IC50 in experiment [1] was below 5 µM; in experiment [2] (setting [3]), above 25 µM.
With `O=C(Nc1ncc(Cc2ccc(C(F)(F)F)cc2)s1)c1ccnc(-c2ccccc2)c1` [Compound 58], the results for the IC50 in experiment [1] and in experiment [2] (setting [3]) were above 25 µM and 5 to 25 µM, respectively.
On to `O=C(Nc1ncc(Cc2ccc(C(F)(F)F)cc2)s1)c1cnc(-c2ccccc2)o1` [Compound 86], for which the IC50 in experiment [1] and in experiment [2] (setting [3]) was 5 to 25 µM throughout.
For the compound `Cc1ccccc1S(=O)(=O)N1CCc2cc(-c3nc(NC(=O)Cc4ccccc4Cl)sc3C)ccc21` [Compound 123], the IC50 was below 5 µM in experiment [1] and above 25 µM in experiment [2] (setting [3]).
As to `O=C(Nc1ncc(-c2ccccc2)s1)c1ccc(-c2cccc([N+](=O)[O-])c2)o1` [Compound 82], the IC50 is 5 to 25 µM in experiment [1] and above 25 µM in experiment [2] (setting [3]).
As to `CCOC(=O)N1CCN(S(=O)(=O)c2ccc(NC(=O)c3ccc(CN4CCc5ccccc5C4)cc3)cc2)CC1` [Compound 199], the IC50 in experiment [1] and in experiment [2] (setting [3]) was below 5 µM in each case.
Consider `Cc1ccccc1C(=O)N1CCc2cc(N3CCC(NC(=O)Cc4ccccc4)C3)ccc21` (stereo not shown) [Compound 96], for which the IC50 in experiment [1] and in experiment [2] (setting [3]) was 5 to 25 µM each time.
